Source: patent publication US7482329B2, “Single domain TDF-related compounds and analogs thereof” (Thrasos Therapeutics, priority 2002, dated 2009)

What was measured:
[1] = target: T1, BMPR-1A (ALK3) receptor extra cellular domain (Homo sapiens, UniProt P36894); assay: Radio-ligand receptor binding assay, competition with 125I-labeled TDF-1 for ALK-3; conditions: competitive binding assay, FIG. 2
T1 construct: immobilized BMPR-1A receptor extra cellular domain (ECD)
Source text: (§1) General protocol: These assays are based on competition between ^125I-labeled TDF-1 (BMP-7 or OP-1) and candidate TDFRP compounds or unlabeled TDF-1 for binding to respective receptors (ALK-3, ALK-6 or BMPR-2). In brief, the procedure involves immobilization of receptor on 96 well Removawell plates, blocking the wells with 3% BSA in PBS and subsequently washing the wells. Increasing concentrations of unlabeled TDF-1 or TDFRP compounds or control (unlabeled TDF-1) prepared in binding buffer are then added. Incubate plate for 1 hour at room temperature, and then add a fixed amount of ^125I-labeled TDF-1 (250,000 to 350,000 cpm) to the wells and further incubate in cold (4° C.) for 20 hours. Aspirate the contents of the wells and wash the wells four times with a wash buffer, and count the receptor bound ^125I-labeled TDF-1 in an auto gamma counter. B. HK-2 Cell Culture and Determination of Cytokine Production

[2] = target: T2, BMPR-2 receptor extra cellular domain (Homo sapiens, UniProt Q13873); assay: Radio-ligand receptor binding assay, competition with 125I-labeled TDF-1 for BMPR-2; conditions: competitive binding, FIG. 4
T2 construct: immobilized BMPR-2 receptor extra cellular domain (ECD)
T2 sequence (Q13873 27-150 limits assumed): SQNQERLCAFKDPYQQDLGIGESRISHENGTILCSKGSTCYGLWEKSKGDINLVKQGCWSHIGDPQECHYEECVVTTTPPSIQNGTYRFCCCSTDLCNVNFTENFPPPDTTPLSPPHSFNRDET
Source text: as §1

HK-2 cells = assay: Anti-inflammatory activity in HK-2 cell culture (FIG. 11-13); assay type: cell-based, human; conditions: marker not stated
Procedure: (§2) The immortalized PTEC-derived HK-2 (Human Kidney-2) cells (ATCC number CRL-2190) were grown in serum-free keratinocyte medium (GIBCO number 17005-042) supplemented with epidermal growth factor (EGF: 5 ng/mL) and bovine pituitary extract (40 ug/mL) for 48 hours as described previously (Ryan et al (1994) Kidney International 45:48-57). Cells were transferred to 24-well plates at a density of 3×10^5 cells per well. After 24 hours, cells were incubated with fresh medium containing TNF-alpha (5 ng/mL) for 20 hours. Controls received medium alone. Then cells were washed twice with fresh culture medium and further incubated with culture medium alone (medium control, and TNF control wells) or TDF-1 at three different concentrations (40, 200 or 1000 ng/mL) or TDFRP compounds at three different concentrations (4, 20 or 100 uM) for sixty hours. During incubation, cells were kept in a 5% CO2 humid atmosphere at 37° C. At the end of the incubation, the media were removed and stored frozen until assayed. The concentrations of IL-6 and sICAM-in culture supernatants were measured by specific ELISA.

[3] = tested on: IL-6 in HK2 human transformed kidney proximal tubule cells; assay: IL-6 level in HK-2 cell medium after TNF-alpha stimulation (ELISA); assay type: cell-based; conditions: after TNF-alpha inflammatory stimulation, FIG. 6, FIG. 10
Procedure: as §2
Dilute the capture antibody to the working concentration in PBS, pH 7.4 without carrier protein. Add 61 uL of stock antibody (360 ug/mL) to 10.939 mL of PBS, gently vertex. Immediately coat a 96 well microplate (Immulon 4 HBX) with 100 uL per well of the diluted capture antibody. Seal the plate and incubate it overnight in cold (4° C.). (PBS: 8.1 mM Na2HPO4, 1.5 mM KH2PO4, 137 mM NaCl, 2.7 mM KCl, pH 7.4, 0.2 um filtered). Next day empty the wells and wash the wells three times, each time using 340 uL of wash buffer per well. (wash buffer: PBS, pH 7.4 containing 0.05% Tween-20).
Prepare blocking buffer, 35 mL per plate. To prepare blocking buffer, add 0.35 grams of BSA and 1.75 grams of sucrose to 35 mL of PBS, pH 7.4, and mix the contents gently. Add 300 uL of blocking buffer to each well and incubate the plate for a minimum of 1 hour at room temperature. Empty the wells and wash wells three times, each time using 340 uL of wash buffer per well.
Prepare a 8 point standard curve using 2-fold serial dilutions in reagent diluent. Dilute stock standard, recombinant IL-6, 70 ng/mL to an initial concentration of 2400 ng/mL in reagent diluent. Then further dilute the standard to a working range, 1200, 600, 300, 150, 75, 37.5, 18.75 and 9.375 ng/mL using reagent diluent. (to prepare reagent diluent, add 0.4 grams of BSA to 40 mL of PBS, pH 7.4 and gently vertex). Also dilute 24 uL of each sample medium (from HK-2 cell cultures) with 376 uL of reagent diluent. Add 100 uL of standard or sample per well, seal the plate and incubate it overnight in cold (4° C.).
Next day, empty the wells and wash wells three times, each time using 340 uL of wash buffer per well. […]

T1 sequence (P36894 24-152 limits assumed, species assumed): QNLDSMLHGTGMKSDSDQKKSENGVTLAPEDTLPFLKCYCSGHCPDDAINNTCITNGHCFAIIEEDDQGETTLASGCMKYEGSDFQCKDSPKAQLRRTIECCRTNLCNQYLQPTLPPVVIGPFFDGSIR

Row | Substance | anti-inflammatory activity (HK-2 cells) | also measured
1 | CIVNSSDDFLCKKYRS [SEQ ID NO:16, negative control peptide] |  | specific binding to ALK3 / inhibition of specific binding of labeled TDF-1 to ALK3 receptor [1]: does not inhibit; specific binding to BMPR-2 / inhibition of specific binding of labeled TDF-1 to BMPR-2 receptor [2]: does not inhibit
2 | CLFDDSSNVICKKYRS [SEQ ID NO:15] | very weak anti-inflammatory activity | 
3 | CYFDDNSNVICKKYRS [SEQ ID NO:42] | no anti-inflammatory activity | 
4 | CYFDDSSNVICK [SEQ ID NO:21] | no anti-inflammatory activity | specific binding to ALK3 / inhibition of specific binding of labeled TDF-1 to ALK3 receptor [1]: specifically binds
5 | CYFDDSSNVICKK [SEQ ID NO:20] | no anti-inflammatory activity | 
6 | CYFDDSSQVICKKYRS [SEQ ID NO:43] |  | effect on level of IL-6 in HK2 cell medium [3]: brings the IL-6 level down below the basal level
7 | TP2.006: peptide printed as SEQ ID NO:45 in FIG. 12 legend; conflicts with TP2.003 = SEQ ID NO:45 in b271 (CYFDDSSNVLCKKYRS) | no anti-inflammatory activity | 
